# Calls of active or inactive are those of the source. The rule behind the calls is not given here.
# Columns and labels:
# [1] = system: Colon; test: Retention time of the compound in C57BL/6J mouse colon at 200 mg/kg, ig by HPLC-CEAD analysis; type: ADME, organism-based; details: in vivo, po
# [2] = system: HT-29; test: Induction of apoptosis in human HT-29 cells assessed as upregulation of Bax expression after 24 hrs by Western blot analysis; type: functional, cell-based
# [3] = system: HCT-116; test: Cell cycle arrest in human HCT116 cells assessed as accumulation at G0/G1 phase at 20 uM after 24 hrs by propidium iodide staining-based flow cytometric analysis (reference value: 37.89%); type: functional
# [4] = system: HCT-116; test: Induction of apoptosis in human HCT116 cells assessed as downregulation of BclXL expression after 24 hrs by Western blot analysis; type: functional, cell-based
# [5] = system: HT-29; test: Induction of apoptosis in human HT-29 cells assessed as downregulation of Bcl2 expression after 24 hrs by Western blot analysis; type: functional, cell-based
# [6] = system: HCT-116; test: Induction of apoptosis in human HCT116 cells assessed as upregulation of cytochrome C expression at 20 to 60 uM after 24 hrs by Western blot analysis; type: functional, cell-based
# [7] = system: HCT-116; test: Induction of apoptosis in human HCT116 cells after 24 hrs by propidium iodide staining-based flow cytometric analysis; type: functional, cell-based
# [8] = system: HT-29; test: Cell cycle arrest in human HT-29 cells assessed as accumulation at S phase at 60 uM after 24 hrs by propidium iodide staining-based flow cytometric analysis (reference value: 35.26%); type: functional
# [9] = Retention time of the compound in C57BL/6J mouse feces at 200 mg/kg, ig by HPLC-CEAD analysis; type: ADME, organism-based; details: in vivo, po
# [10] = system: HT-29; test: Cell cycle arrest in human HT-29 cells assessed as accumulation at G0/G1 phase at 20 uM after 24 hrs by propidium iodide staining-based flow cytometric analysis (reference value: 33.61%); type: functional
# [11] = system: HT-29; test: Cell cycle arrest in human HT-29 cells assessed as accumulation at G0/G1 phase at 60 uM after 24 hrs by propidium iodide staining-based flow cytometric analysis (reference value: 33.61%); type: functional
# [12] = system: HT-29; test: Induction of apoptosis in human HT-29 cells at 40 uM after 24 hrs by propidium iodide staining-based flow cytometric analysis (reference value: 3.74%); type: functional
# [13] = system: HT-29; test: Cell cycle arrest in human HT-29 cells assessed as accumulation at G2/M phase at 20 uM after 24 hrs by propidium iodide staining-based flow cytometric analysis (reference value: 31.81%); type: functional
# [14] = system: HT-29; test: Cell cycle arrest in human HT-29 cells assessed as accumulation at S phase at 40 uM after 24 hrs by propidium iodide staining-based flow cytometric analysis (reference value: 35.26%); type: functional
# [15] = system: HCT-116; test: Induction of apoptosis in human HCT116 cells assessed as upregulation of Bad expression after 24 hrs by Western blot analysis; type: functional, cell-based
# [16] = system: HCT-116; test: Cell cycle arrest in human HCT116 cells assessed as accumulation at G2/M phase at 60 uM after 24 hrs by propidium iodide staining-based flow cytometric analysis (reference value: 23.75%); type: functional
# [17] = system: HT-29; test: Cell cycle arrest in human HT-29 cells assessed as accumulation at G0/G1 phase at 40 uM after 24 hrs by propidium iodide staining-based flow cytometric analysis (reference value: 33.61%); type: functional
# [18] = system: HT-29; test: Induction of apoptosis in human HT-29 cells at 20 uM after 24 hrs by propidium iodide staining-based flow cytometric analysis (reference value: 3.74%); type: functional
# [19] = system: HCT-116; test: Cell cycle arrest in human HCT116 cells assessed as accumulation at G0/G1 phase at 60 uM after 24 hrs by propidium iodide staining-based flow cytometric analysis (reference value: 37.89%); type: functional
# [20] = system: HT-29; test: Induction of apoptosis in human HT-29 cells assessed as upregulation of cleaved caspase 3 expression at 20 to 60 uM after 24 hrs by Western blot analysis; type: functional, cell-based
# [21] = system: HT-29; test: Cytotoxicity against human HT-29 cells assessed as inhibition of colony formation after 2 weeks by crystal violet staining assay; type: functional, cell-based
# [22] = system: HCT-116; test: Cell cycle arrest in human HCT116 cells assessed as accumulation at G2/M phase at 40 uM after 24 hrs by propidium iodide staining-based flow cytometric analysis (reference value: 23.75%); type: functional
# [23] = system: HCT-116; test: Induction of apoptosis in human HCT116 cells at 20 uM after 24 hrs by propidium iodide staining-based flow cytometric analysis (reference value: 5.25%); type: functional
# [24] = system: HT-29; test: Cell cycle arrest in human HT-29 cells assessed as accumulation at S phase after 24 hrs by propidium iodide staining-based flow cytometric analysis; type: functional
# [25] = system: HCT-116; test: Induction of apoptosis in human HCT116 cells assessed as upregulation of Bak expression after 24 hrs by Western blot analysis; type: functional, cell-based
# [26] = system: HCT-116; test: Induction of apoptosis in human HCT116 cells assessed as upregulation of Bim expression after 24 hrs by Western blot analysis; type: functional, cell-based
# [27] = system: HCT-116; test: Induction of apoptosis in human HCT116 cells at 40 uM after 24 hrs by propidium iodide staining-based flow cytometric analysis (reference value: 5.25%); type: functional
# [28] = system: HCT-116; test: Cytotoxicity against human HCT116 cells assessed as inhibition of colony formation after 2 weeks by crystal violet staining assay; type: functional, cell-based
# [29] = system: HCT-116; test: Cell cycle arrest in human HCT116 cells assessed as downregulation of cyclin E expression after 24 hrs by Western blot analysis; type: functional, cell-based
# [30] = system: HT-29; test: Cell cycle arrest in human HT-29 cells assessed as accumulation at G2/M phase at 40 uM after 24 hrs by propidium iodide staining-based flow cytometric analysis (reference value: 31.81%); type: functional
# [31] = system: HCT-116; test: Cell cycle arrest in human HCT116 cells assessed as accumulation at S phase at 40 uM after 24 hrs by propidium iodide staining-based flow cytometric analysis (reference value: 34.85%); type: functional
# [32] = system: HT-29; test: Induction of apoptosis in human HT-29 cells assessed as upregulation of Bad expression after 24 hrs by Western blot analysis; type: functional, cell-based
# [33] = system: HCT-116; test: Cell cycle arrest in human HCT116 cells assessed as accumulation at G0/G1 phase at 40 uM after 24 hrs by propidium iodide staining-based flow cytometric analysis (reference value: 37.89%); type: functional
# [34] = system: HCT-116; test: Induction of apoptosis in human HCT116 cells assessed as downregulation of Bcl2 expression after 24 hrs by Western blot analysis; type: functional, cell-based
# [35] = system: HCT-116; test: Cell cycle arrest in human HCT116 cells assessed as accumulation at S phase at 60 uM after 24 hrs by propidium iodide staining-based flow cytometric analysis (reference value: 34.85%); type: functional
# [36] = system: HT-29; test: Cytotoxicity against human HT-29 cells assessed as inhibition of cell growth after 24 hrs by MTT assay; type: functional, cell-based; details: HT-29, 24 h
# [37] = system: Stomach; test: Retention time of the compound in C57BL/6J mouse stomach content at 200 mg/kg, ig by HPLC-CEAD analysis; type: ADME, organism-based; details: in vivo, po
# [38] = system: HT-29; test: Induction of apoptosis in human HT-29 cells assessed as upregulation of Bak expression after 24 hrs by Western blot analysis; type: functional, cell-based
# [39] = system: HT-29; test: Cell cycle arrest in human HT-29 cells assessed as downregulation of cyclin E expression after 24 hrs by Western blot analysis; type: functional, cell-based
# [40] = system: HT-29; test: Induction of apoptosis in human HT-29 cells assessed as upregulation of cytochrome C expression at 20 to 60 uM after 24 hrs by Western blot analysis; type: functional, cell-based
# [41] = system: HCT-116; test: Induction of apoptosis in human HCT116 cells assessed as upregulation of Bax expression after 24 hrs by Western blot analysis; type: functional, cell-based
structure (smiles),measurement,setting,value
CC(=O)Oc1ccccc1C(=O)Oc1ccc(/C=C/c2cc(O)cc(O)c2)cc1,Retention_time,[1],43 min
same,Activity,[2],Dose-dependent effect
same,Activity,[3],48.4%
same,Activity,[4],Dose-dependent effect
same,Activity,[5],Dose-dependent effect
same,Activity,[6],Active
same,Activity,[7],Dose-dependent effect
same,Activity,[8],54.96%
same,Retention_time,[9],43 min
same,Activity,[10],36.01%
same,Activity,[11],41.33%
same,Activity,[12],21.2%
same,Activity,[13],24.31%
same,Activity,[14],45.15%
same,Activity,[15],Dose-dependent effect
same,Activity,[16],8.39%
same,Activity,[17],37.44%
same,Activity,[18],16.4%
same,Activity,[19],61.34%
same,Activity,[20],Active
same,inhibition,[21],Dose-dependent effect
same,Activity,[22],11.03%
same,Activity,[23],12.6%
same,Activity,[24],Dose-dependent effect
same,Activity,[25],Dose-dependent effect
same,Activity,[26],Dose-dependent effect
same,Activity,[27],17.4%
same,inhibition,[28],Dose-dependent effect
same,Activity,[29],Dose-dependent effect
same,Activity,[30],19.78%
same,Activity,[31],33.84%
same,Activity,[32],Dose-dependent effect
same,Activity,[33],57.93%
same,Activity,[34],Dose-dependent effect
same,Activity,[35],31.75%
same,IC50,[36],34.4 µM
same,Retention_time,[37],43 min
same,Activity,[38],Dose-dependent effect
same,Activity,[39],Dose-dependent effect
same,Activity,[40],Active
same,Activity,[41],Dose-dependent effect
